In PubChem BioAssay (NCI):
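Briefly, cells in 96-well plates were exposed to five compound concentrations for 48 h, and endpoints were estimated by linear interpolation. TGI marks complete inhibition of growth.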

Legend:
Experiment in all cases: growth of human tumour cells (NCI), 48 h
IGROV1 ovarian = test system: IGROV1 ovarian
OVCAR-4 ovarian = test system: OVCAR-4 ovarian
MALME-3M melanoma = test system: MALME-3M melanoma
EKVX NSCLC = test system: EKVX NSCLC
A549 NSCLC = test system: A549 NSCLC
OVCAR-8 ovarian = test system: OVCAR-8 ovarian
UACC-257 melanoma = test system: UACC-257 melanoma
K-562 leukemia = test system: K-562 leukemia
BT-549 breast = test system: BT-549 breast
786-0 renal = test system: 786-0 renal
HL-60(TB) leukemia = test system: HL-60(TB) leukemia
DU-145 prostate = test system: DU-145 prostate
SF-295 CNS = test system: SF-295 CNS
SK-MEL-5 melanoma = test system: SK-MEL-5 melanoma
SF-268 CNS = test system: SF-268 CNS
T-47D breast = test system: T-47D breast
HOP-62 NSCLC = test system: HOP-62 NSCLC
SN12C renal = test system: SN12C renal
TK-10 renal = test system: TK-10 renal
MCF7 breast = test system: MCF7 breast
UO-31 renal = test system: UO-31 renal
NCI/ADR-RES ovarian = test system: NCI/ADR-RES ovarian
HCT-116 colon = test system: HCT-116 colon
SK-MEL-2 melanoma = test system: SK-MEL-2 melanoma
SF-539 CNS = test system: SF-539 CNS
SNB-19 CNS = test system: SNB-19 CNS
M14 melanoma = test system: M14 melanoma
OVCAR-3 ovarian = test system: OVCAR-3 ovarian
MDA-MB-231 breast = test system: MDA-MB-231 breast
SNB-75 CNS = test system: SNB-75 CNS
ACHN renal = test system: ACHN renal
KM12 colon = test system: KM12 colon
PC-3 prostate = test system: PC-3 prostate
MDA-N = test system: MDA-N
U251 CNS = test system: U251 CNS
SK-MEL-28 melanoma = test system: SK-MEL-28 melanoma
SW-620 colon = test system: SW-620 colon
HCT-15 colon = test system: HCT-15 colon
LOX IMVI melanoma = test system: LOX IMVI melanoma
UACC-62 melanoma = test system: UACC-62 melanoma
NCI-H460 lung = test system: NCI-H460 lung
SR leukemia = test system: SR leukemia
OVCAR-5 ovarian = test system: OVCAR-5 ovarian
A498 renal = test system: A498 renal
HT29 colon = test system: HT29 colon
NCI-H226 lung = test system: NCI-H226 lung
RXF 393 renal = test system: RXF 393 renal
NCI-H23 lung = test system: NCI-H23 lung
SK-OV-3 ovarian = test system: SK-OV-3 ovarian
MOLT-4 leukemia = test system: MOLT-4 leukemia
RPMI-8226 leukemia = test system: RPMI-8226 leukemia
COLO 205 colon = test system: COLO 205 colon
CAKI-1 renal = test system: CAKI-1 renal
HCC-2998 colon = test system: HCC-2998 colon
HS 578T breast = test system: HS 578T breast
MDA-MB-435 = test system: MDA-MB-435
NCI-H522 lung = test system: NCI-H522 lung
HOP-92 NSCLC = test system: HOP-92 NSCLC
CCRF-CEM leukemia = test system: CCRF-CEM leukemia

CN(C)c1ccc(/C=C2\C[C@H]3[C@@H]4CC=C5C[C@@H](O)CC[C@]5(C)[C@H]4CC[C@]3(C)C2=O)cc1
TGI (IGROV1 ovarian): 35.8 µM
TGI (OVCAR-4 ovarian): 48.2 µM
TGI (MALME-3M melanoma): 39.6 µM
TGI (EKVX NSCLC): 93.7 µM
TGI (A549 NSCLC): 44.4 µM
TGI (OVCAR-8 ovarian): 19.1 µM
TGI (UACC-257 melanoma): 40.2 µM
TGI (K-562 leukemia): > 100 µM
TGI (BT-549 breast): > 100 µM
TGI (786-0 renal): 41 µM
TGI (HL-60(TB) leukemia): > 100 µM
TGI (DU-145 prostate): > 100 µM
TGI (SF-295 CNS): 75.8 µM
TGI (SK-MEL-5 melanoma): > 100 µM
TGI (SF-268 CNS): 27.7 µM
TGI (T-47D breast): 62.8 µM
TGI (HOP-62 NSCLC): 38.3 µM
TGI (SN12C renal): 54.9 µM
TGI (TK-10 renal): 39.3 µM
TGI (MCF7 breast): > 100 µM
TGI (UO-31 renal): 18.9 µM
TGI (NCI/ADR-RES ovarian): 66.8 µM
TGI (HCT-116 colon): > 100 µM
TGI (SK-MEL-2 melanoma): 41.4 µM
TGI (SF-539 CNS): 27.9 µM
TGI (SNB-19 CNS): 39.3 µM
TGI (M14 melanoma): 46 µM
TGI (OVCAR-3 ovarian): 66.8 µM
TGI (MDA-MB-231 breast): 36 µM
TGI (SNB-75 CNS): 57 µM
TGI (ACHN renal): 34.8 µM
TGI (KM12 colon): > 100 µM
TGI (PC-3 prostate): 29.3 µM
TGI (MDA-N): > 100 µM
TGI (U251 CNS): 25.9 µM
TGI (SK-MEL-28 melanoma): 40 µM
TGI (SW-620 colon): > 100 µM
TGI (HCT-15 colon): > 100 µM
TGI (LOX IMVI melanoma): 29 µM
TGI (UACC-62 melanoma): 32.6 µM
TGI (NCI-H460 lung): 33.7 µM
TGI (SR leukemia): > 100 µM
TGI (OVCAR-5 ovarian): 46.4 µM
TGI (A498 renal): 38.2 µM
TGI (HT29 colon): 56.2 µM
TGI (NCI-H226 lung): 42.3 µM
TGI (RXF 393 renal): 43.9 µM
TGI (NCI-H23 lung): 81.2 µM
TGI (SK-OV-3 ovarian): 63.7 µM
TGI (MOLT-4 leukemia): > 100 µM
TGI (RPMI-8226 leukemia): > 100 µM
TGI (COLO 205 colon): > 100 µM

CC(C)(C)OC(=O)NC(CSCc1ccc(C(=O)c2ccccc2)cc1)C(=O)O (stereo unspecified)
TGI (IGROV1 ovarian): > 100 µM
TGI (OVCAR-4 ovarian): > 100 µM
TGI (MALME-3M melanoma): > 100 µM
TGI (EKVX NSCLC): > 100 µM
TGI (A549 NSCLC): > 100 µM
TGI (OVCAR-8 ovarian): > 100 µM
TGI (UACC-257 melanoma): > 100 µM
TGI (K-562 leukemia): > 100 µM
TGI (BT-549 breast): > 100 µM
TGI (786-0 renal): > 100 µM
TGI (HL-60(TB) leukemia): > 100 µM
TGI (DU-145 prostate): > 100 µM
TGI (CAKI-1 renal): > 100 µM
TGI (SF-295 CNS): > 100 µM
TGI (SK-MEL-5 melanoma): > 100 µM
TGI (HCC-2998 colon): > 100 µM
TGI (SF-268 CNS): > 100 µM
TGI (HOP-62 NSCLC): > 100 µM
TGI (HS 578T breast): > 100 µM
TGI (SN12C renal): > 100 µM
TGI (MDA-MB-435): > 100 µM
TGI (TK-10 renal): > 100 µM
TGI (MCF7 breast): > 100 µM
TGI (UO-31 renal): > 100 µM
TGI (NCI/ADR-RES ovarian): > 100 µM
TGI (HCT-116 colon): > 100 µM
TGI (NCI-H522 lung): > 100 µM
TGI (SF-539 CNS): > 100 µM
TGI (SNB-19 CNS): > 100 µM
TGI (OVCAR-3 ovarian): > 100 µM
TGI (MDA-MB-231 breast): > 100 µM
TGI (SNB-75 CNS): > 100 µM
TGI (ACHN renal): > 100 µM
TGI (KM12 colon): > 100 µM
TGI (PC-3 prostate): > 100 µM
TGI (MDA-N): > 100 µM
TGI (U251 CNS): > 100 µM
TGI (SK-MEL-28 melanoma): > 100 µM
TGI (SW-620 colon): > 100 µM
TGI (HCT-15 colon): > 100 µM
TGI (LOX IMVI melanoma): > 100 µM
TGI (NCI-H460 lung): > 100 µM
TGI (SR leukemia): > 100 µM
TGI (OVCAR-5 ovarian): > 100 µM
TGI (A498 renal): > 100 µM
TGI (HT29 colon): > 100 µM
TGI (NCI-H226 lung): > 100 µM
TGI (HOP-92 NSCLC): > 100 µM
TGI (RXF 393 renal): > 100 µM
TGI (CCRF-CEM leukemia): > 100 µM
TGI (NCI-H23 lung): > 100 µM
TGI (MOLT-4 leukemia): > 100 µM
TGI (RPMI-8226 leukemia): > 100 µM
TGI (COLO 205 colon): > 100 µM
